Tested on: human PBMCs
Experiment: Immunoblot of caspase-3 in PBMCs
Type: cell-based
Source text: FIG. 3. Initial SAR studies: Assessing activity of PAL functionalized PTMA analogs. […] (A) PA and Ph-PA show less toxic to healthy PBMCs compared to Jurkat cells. […] (B) Immunoblot of caspase-3 in Jurkat and PBMCs with indicated conditions.
• 1) Portimine A and its functional analogs show stereo-selective acute toxicity in cancer cells (FIG. 1). […] (B) Structure of portimine related analogs: phenyl-portimine A (Ph-PA, 36) and epi-portimine A (ePA, 38). Structure of fully functionalized portimine A-based epimeric probe pair: portimine A-diazirine-alkyne (PA-DA, 35-2) and epi-portimine A-diazirine-alkyne (ePA-DA, 35-1). (C) Cell viability analysis of portimine A and analogs. Jurkat cells were treated with increasing concentrations of portimine A and analogs for 24 hours. All presented data as mean of biological replicated experiments (n=3). […] Jurkat cells were treated with portimine A or analogs for 12 hours at 10 nM. […] Structurally related negative control ePA and PB are non-toxic in all cell types in the current concentrate range. PBMCs (25k per well), Jurkat (10k per well). […] Cell cycle analysis in Jurkat cells (FIG. 2). […] Cell lysates were fractionated by sucrose gradient (5-50%) and each fraction were analyzed by western blot. eIF6 levels increase in 60S subunit fraction and decrease in ribosome-free fractions after PA treatment. […]

Compound	caspase-3 cleavage in human PBMCs
C#CCCC1(CCNC(=O)c2ccc(C3=C[C@@H]4[C@@H]5O[C@]6(CC[C@H](O6)C(C)C[C@@H](O)C5=O)CC(O)C5=NCC[C@@]54CC3)cc2)N=N1 (some centres unmarked) [PA-DA, portimine A-diazirine-alkyne]	but not human PBMCs
C=CC1=C[C@@H]2[C@@H]3O[C@]4(CC[C@H](O4)C(C)C[C@@H](O)C3=O)CC(O)C3=NCC[C@@]32CC1 (some centres unmarked) [PA, portimine A]	but not human PBMCs

— patent US20260242390A1, “TOTAL SYNTHESES OF PORTIMINE A AND ANALOGUES THEREOF AS SMALL MOLECULE MODULATORS OF NMD3” (priority 2023, published 2026)
